Reference: ChEMBL document CHEMBL1127588, “A structure-activity relationship study of benzylic modifications of 4-[1-(1-naphthyl)ethyl]-1H-imidazoles on alpha 1- and alpha 2-adrenergic receptors” (J Med Chem, 1994)

Assays:
[1] = target: T1, Adrenergic receptor alpha-2 (Rattus norvegicus, UniProt P22086+P19328+P22909); experiment: Tested for its binding affinity against alpha-2 receptor in rat brain membrane; type: cell membranes
T1 sequence (P22086 whole entry): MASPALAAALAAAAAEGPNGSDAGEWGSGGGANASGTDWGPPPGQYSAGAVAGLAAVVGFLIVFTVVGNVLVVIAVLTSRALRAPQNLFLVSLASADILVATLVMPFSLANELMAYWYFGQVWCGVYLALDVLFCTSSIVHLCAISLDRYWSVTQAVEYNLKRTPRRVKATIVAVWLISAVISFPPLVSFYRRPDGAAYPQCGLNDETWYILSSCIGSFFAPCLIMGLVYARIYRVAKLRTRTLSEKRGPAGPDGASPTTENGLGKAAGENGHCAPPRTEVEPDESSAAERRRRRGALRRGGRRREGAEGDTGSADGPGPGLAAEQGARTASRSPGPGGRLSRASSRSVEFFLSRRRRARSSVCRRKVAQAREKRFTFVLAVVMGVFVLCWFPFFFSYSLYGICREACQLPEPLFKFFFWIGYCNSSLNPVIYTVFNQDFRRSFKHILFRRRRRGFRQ
T1 sequence (P19328 whole entry): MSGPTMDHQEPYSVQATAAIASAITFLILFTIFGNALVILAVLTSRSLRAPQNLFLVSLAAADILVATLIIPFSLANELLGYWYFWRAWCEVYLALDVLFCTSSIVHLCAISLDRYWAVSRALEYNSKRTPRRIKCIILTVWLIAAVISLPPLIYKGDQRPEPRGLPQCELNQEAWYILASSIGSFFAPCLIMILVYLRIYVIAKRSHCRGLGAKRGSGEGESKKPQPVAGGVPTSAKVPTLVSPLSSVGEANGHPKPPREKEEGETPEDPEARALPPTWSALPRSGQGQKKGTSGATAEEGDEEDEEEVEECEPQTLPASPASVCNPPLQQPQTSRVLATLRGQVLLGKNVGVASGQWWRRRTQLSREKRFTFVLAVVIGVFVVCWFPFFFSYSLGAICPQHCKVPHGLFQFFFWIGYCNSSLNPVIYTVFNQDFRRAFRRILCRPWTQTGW
T1 sequence (P22909 whole entry): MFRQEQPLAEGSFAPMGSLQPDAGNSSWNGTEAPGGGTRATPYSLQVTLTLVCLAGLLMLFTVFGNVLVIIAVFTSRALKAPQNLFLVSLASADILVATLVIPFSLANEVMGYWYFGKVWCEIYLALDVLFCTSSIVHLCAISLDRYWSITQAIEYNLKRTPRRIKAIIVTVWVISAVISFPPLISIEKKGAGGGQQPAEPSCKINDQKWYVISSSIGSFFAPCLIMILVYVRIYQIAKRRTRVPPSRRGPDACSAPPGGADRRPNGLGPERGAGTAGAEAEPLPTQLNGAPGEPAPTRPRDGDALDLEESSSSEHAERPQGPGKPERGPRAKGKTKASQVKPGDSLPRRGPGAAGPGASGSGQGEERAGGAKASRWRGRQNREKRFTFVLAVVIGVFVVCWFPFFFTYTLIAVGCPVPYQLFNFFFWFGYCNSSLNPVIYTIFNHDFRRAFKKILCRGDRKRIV

[2] = target: T2, Adrenergic receptor alpha-1 (Rattus norvegicus, UniProt P15823+P23944+P43140); experiment: Tested for its binding affinity against alpha-1 receptor in rat brain membrane; type: cell membranes
T2 sequence (P15823 whole entry): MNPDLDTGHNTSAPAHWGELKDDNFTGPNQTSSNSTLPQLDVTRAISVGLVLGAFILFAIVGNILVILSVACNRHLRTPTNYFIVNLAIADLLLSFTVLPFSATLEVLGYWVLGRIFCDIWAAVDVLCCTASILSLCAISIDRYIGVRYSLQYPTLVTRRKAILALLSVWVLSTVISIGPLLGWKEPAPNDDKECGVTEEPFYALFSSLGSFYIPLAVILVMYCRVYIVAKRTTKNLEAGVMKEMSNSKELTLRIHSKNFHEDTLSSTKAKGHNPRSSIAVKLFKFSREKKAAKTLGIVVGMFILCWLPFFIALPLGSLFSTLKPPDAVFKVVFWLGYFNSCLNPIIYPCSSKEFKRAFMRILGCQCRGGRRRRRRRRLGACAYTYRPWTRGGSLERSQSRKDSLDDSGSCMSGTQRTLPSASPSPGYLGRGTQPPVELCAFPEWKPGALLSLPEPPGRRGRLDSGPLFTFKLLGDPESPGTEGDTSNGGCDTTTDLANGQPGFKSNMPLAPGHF
T2 sequence (P23944 whole entry): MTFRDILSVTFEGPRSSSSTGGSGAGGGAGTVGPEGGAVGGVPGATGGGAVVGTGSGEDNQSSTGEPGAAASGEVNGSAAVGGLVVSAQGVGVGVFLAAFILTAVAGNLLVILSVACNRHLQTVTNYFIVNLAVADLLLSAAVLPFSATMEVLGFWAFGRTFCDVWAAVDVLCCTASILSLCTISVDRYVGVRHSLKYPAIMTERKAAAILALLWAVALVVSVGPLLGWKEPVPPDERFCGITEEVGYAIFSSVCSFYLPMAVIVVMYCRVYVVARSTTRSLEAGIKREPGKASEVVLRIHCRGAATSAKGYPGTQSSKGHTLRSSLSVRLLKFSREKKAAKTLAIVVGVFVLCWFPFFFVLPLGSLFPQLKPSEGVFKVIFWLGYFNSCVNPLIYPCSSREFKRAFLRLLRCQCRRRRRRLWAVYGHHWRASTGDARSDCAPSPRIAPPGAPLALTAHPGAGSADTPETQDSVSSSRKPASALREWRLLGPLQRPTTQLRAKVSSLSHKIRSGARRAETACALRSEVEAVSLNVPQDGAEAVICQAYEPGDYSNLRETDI
T2 sequence (P43140 whole entry): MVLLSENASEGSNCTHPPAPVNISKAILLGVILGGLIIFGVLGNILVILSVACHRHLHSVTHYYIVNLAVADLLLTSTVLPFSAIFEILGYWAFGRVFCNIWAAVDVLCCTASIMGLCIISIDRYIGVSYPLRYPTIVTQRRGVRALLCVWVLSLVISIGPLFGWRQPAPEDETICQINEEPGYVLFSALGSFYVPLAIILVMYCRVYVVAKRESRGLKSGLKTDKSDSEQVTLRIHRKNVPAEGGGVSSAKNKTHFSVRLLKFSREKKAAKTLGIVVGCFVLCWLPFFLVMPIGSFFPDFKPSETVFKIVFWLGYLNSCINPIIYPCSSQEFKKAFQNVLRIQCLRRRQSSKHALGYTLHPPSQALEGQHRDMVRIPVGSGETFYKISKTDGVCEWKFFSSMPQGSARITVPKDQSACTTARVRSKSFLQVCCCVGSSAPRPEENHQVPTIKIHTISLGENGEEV

[3] = Ratio between IC50 values of alpha 1 and alpha 2 receptors
[4] = target: Adrenergic receptor alpha (Rattus norvegicus) (UniProt P15823+P23944+P43140+P22086+P19328+P22909); experiment: Ratio between EC50 values of alpha 1 and alpha 2 receptors; type: protein assay

Structure (SMILES) | Ki [1] [µM] | Ki [2] [µM] | Ratio [3] | Ratio [4]
Cl.OC(c1c[nH]cn1)(c1cccc2ccccc12)C(F)(F)F (stereo unspecified) | > 24.539 | > 50 | > 2 | 
O=C(O)C(=O)O.O=C(c1c[nH]cn1)c1cccc2ccccc12 | 31.754 | 15.902 | 0.5 | 
CC(c1c[nH]cn1)c1cccc2ccccc12 (stereo in doubt; S-(+)-2) |  |  | 41.9 | 752
CC(c1c[nH]cn1)c1cccc2ccccc12 (stereo in doubt; S-(-)-2) |  |  | 22.3 | 
CC(c1c[nH]cn1)c1cccc2ccccc12 (stereo in doubt; 2) |  |  | 18.2 | 643
